Laboratory results reported in patent US6927226B2, “Antidepressant azaheterocyclymethyl derivatives of 7,8-dihydro-3H-6,9-dioxa-1,3-diazacyclopenta[a]naphthalene” (Wyeth, priority 2001, dated 2005).
Structures can show the parent of a compound that is named as a salt. Where two headings read alike, the source gives them in different places.

What was measured:
serotonin transporter = biological target: T1, serotonin transporter (Rattus norvegicus, UniProt P31652); assay: 3H-paroxetine displacement, affinity for the serotonin transporter; assay type: binding
T1 construct: displace ^3H-paroxetine from male rat frontal cortical membranes; from tissue; host or cells: male rat frontal cortex membranes

human 5-HT1A receptors = biological target: T2, human 5-HT1A receptors (Homo sapiens, UniProt P08908); assay: [3H] 8-OHDPAT displacement from the 5-HT1A receptor (transfected CHO cells); assay type: binding
T2 construct: expressed in transfected cells; host or cells: CHO cells, stably transfected
T2 sequence (P08908 1-422): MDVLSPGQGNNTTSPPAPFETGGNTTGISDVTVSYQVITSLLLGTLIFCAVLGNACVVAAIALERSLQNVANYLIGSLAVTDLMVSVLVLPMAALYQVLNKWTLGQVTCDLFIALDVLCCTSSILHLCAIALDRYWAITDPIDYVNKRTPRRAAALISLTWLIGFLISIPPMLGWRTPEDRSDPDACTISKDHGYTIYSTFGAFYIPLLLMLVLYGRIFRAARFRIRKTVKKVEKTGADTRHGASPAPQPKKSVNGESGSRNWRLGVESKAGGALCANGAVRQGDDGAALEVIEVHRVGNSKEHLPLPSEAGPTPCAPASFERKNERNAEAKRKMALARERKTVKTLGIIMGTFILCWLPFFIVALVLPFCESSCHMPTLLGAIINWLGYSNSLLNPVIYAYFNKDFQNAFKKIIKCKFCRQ
From the text: High affinity for the serotonin 5-HT1A receptor was established by testing the claimed compound's ability to displace [^3H] 8-OHDPAT (dipropylaminotetralin) from the 5-HT1A serotonin receptor following a modification of the procedure of Hall et al., J. Neurochem. 44, 1685 (1985) which utilizes CHO cells stably transfected with human 5-HT1A receptors.

[1] = biological target: T3, cloned human 5-HT1A receptors (Homo sapiens, UniProt P08908); assay: 35S-GTPγS binding assay, antagonist activity at 5-HT1A receptors; assay type: biochemical; conditions: reversal of the effects of the standard agonist 8-OHDPAT; for IC50: membranes with cloned human 5-HT1A receptors, read-out: 5-HT1A Function IC50
T3 construct: expressed in transfected cells
T3 sequence (P08908 1-422): T2 sequence (P08908 1-422)
Method: Antagonist activity at 5-HT1A receptors was established by using a ^35S-GTPγS binding assay similar to that used by Lazareno and Birdsall (Br. J. Pharmacol. 109: 1120, 1993), in which the test compound's ability to affect the binding of ^35S-GTPγS to membranes containing cloned human 5-HT1A receptors was determined. Agonists produce an increase in binding whereas antagonists produce no increase but rather reverse the effects of the standard agonist 8-OHDPAT. The test compound's maximum inhibitory effect is represented as the Imax, while its potency is defined by the IC50.

[2] = displacement of 3H-paroxetine, male rat frontal cortical membranes, read-out: 5-HT Transporter Affinity KI
[3] = displacement of [3H] 8-OHDPAT, CHO cells stably transfected with human 5-HT1A receptors, read-out: 5-HT1A Receptor Affinity KI

T1 sequence (P31652 whole entry): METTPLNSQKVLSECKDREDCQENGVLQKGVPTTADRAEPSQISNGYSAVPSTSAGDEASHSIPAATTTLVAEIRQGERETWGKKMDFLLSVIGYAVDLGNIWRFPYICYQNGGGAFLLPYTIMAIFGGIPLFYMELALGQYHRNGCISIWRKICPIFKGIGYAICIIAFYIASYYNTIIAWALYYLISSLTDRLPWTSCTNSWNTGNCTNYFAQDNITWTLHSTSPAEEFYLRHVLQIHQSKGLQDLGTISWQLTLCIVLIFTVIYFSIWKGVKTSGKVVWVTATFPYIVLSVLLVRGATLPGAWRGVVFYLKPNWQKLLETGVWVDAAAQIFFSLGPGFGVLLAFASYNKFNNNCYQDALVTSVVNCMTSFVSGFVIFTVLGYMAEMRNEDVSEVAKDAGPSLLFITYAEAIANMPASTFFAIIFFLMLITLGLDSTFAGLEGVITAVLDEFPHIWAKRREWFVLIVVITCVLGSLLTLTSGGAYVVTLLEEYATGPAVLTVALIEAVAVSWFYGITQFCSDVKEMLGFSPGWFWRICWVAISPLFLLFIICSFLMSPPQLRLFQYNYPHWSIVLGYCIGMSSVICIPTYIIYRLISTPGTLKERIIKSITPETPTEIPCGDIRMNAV

| Compound | melting point | Ki (serotonin transporter) | Ki (human 5-HT1A receptors) | 5-HT1A Function (Imax), maximum inhibitory effect [1] | IC50 [1] | Ki (serotonin transporter; [2]) | Ki (human 5-HT1A receptors; [3]) |
| --- | --- | --- | --- | --- | --- | --- | --- |
| Fc1cccc2c(C3=CCN(CC4COc5ccc6[nH]c(C(F)(F)F)nc6c5O4)CC3)c[nH]c12 (stereo not drawn) (as salt: fumarate) [Example 7, 8-[4-(7-Fluoro-1H-indol-3-yl)-3,6-dihydro-2H-pyridin-1-ylmethyl]-2-trifluoromethyl-7,8-dihydro-3H-6,9-dioxa-1,3-diaza-cyclopenta[a]naphthalene] | 239 to 240 °C |  |  |  |  |  |  |
| CCc1nc2c3c(ccc2[nH]1)OCC(CN1CC=C(c2c[nH]c4ccccc24)CC1)O3 (stereo not drawn) [Example 6, 8-[4-(1H-Indol-3-yl)-3,6-dihydro-2H-pyridin-1-ylmethyl]-2-ethyl-7,8-dihydro-3H-6,9-dioxa-1,3-diaza-cyclopenta[a]naphthalene] |  | 0.42 nM | 1.34 nM | (35.0) | 36 nM |  |  |
| FC(F)(F)c1nc2c3c(ccc2[nH]1)OCC(CN1CC=C(c2c[nH]c4ccccc24)CC1)O3 (stereo not drawn) [Example 2, 8-[4-(1H-Indol-3-yl)-3,6-dihydro-2H-pyridin-1-ylmethyl]-2-trifluoromethyl-7,8-dihydro-3H-6,9-dioxa-1,3-diaza-cyclopenta[a]naphthalene] |  | 1.05 nM | 1.76 nM | (82.5) | 29 nM |  |  |
| Fc1ccc2[nH]cc(C3=CCN(CC4COc5ccc6[nH]c(C(F)(F)F)nc6c5O4)CC3)c2c1 (stereo not drawn) (as salt: fumarate) [Example 1, 8-[4-(5-Fluoro-1H-indol-3-yl)-3,6-dihydro-2H-pyridin-1-ylmethyl]-2-trifluoromethyl-7,8-dihydro-3H-6,9-dioxa-1,3-diaza-cyclopenta[a]naphthalene] | 236 to 238 °C |  |  |  |  |  |  |
| Cc1nc2c3c(ccc2[nH]1)OCC(CN1CC=C(c2c[nH]c4ccccc24)CC1)O3 (stereo not drawn) (as salt: fumarate) (hydrate or solvate) [Example 4, 8-[4-(1H-Indol-3-yl)-3,6-dihydro-2H-pyridin-1-ylmethyl]-2-methyl-7,8-dihydro-3H-6,9-dioxa-1,3-diaza-cyclopenta[a]naphthalene] | 219 to 222 °C |  |  |  |  |  |  |
| Fc1cccc2c(C3=CCN(CC4COc5ccc6[nH]c(C(F)(F)F)nc6c5O4)CC3)c[nH]c12 (stereo not drawn) [Example 7, 8-[4-(7-Fluoro-1H-indol-3-yl)-3,6-dihydro-2H-pyridin-1-ylmethyl]-2-trifluoromethyl-7,8-dihydro-3H-6,9-dioxa-1,3-diaza-cyclopenta[a]naphthalene] |  | 0.69 nM | 0.81 nM | (89.1) | 27.4 nM |  |  |
| CCc1nc2c3c(ccc2[nH]1)OCC(CN1CC=C(c2c[nH]c4ccccc24)CC1)O3 (stereo not drawn) (as salt: fumarate) [Example 6, 8-[4-(1H-Indol-3-yl)-3,6-dihydro-2H-pyridin-1-ylmethyl]-2-ethyl-7,8-dihydro-3H-6,9-dioxa-1,3-diaza-cyclopenta[a]naphthalene] | 231 to 232 °C |  |  |  |  |  |  |
| Cc1nc2c3c(ccc2[nH]1)OCC(CN1CC=C(c2c[nH]c4ccccc24)CC1)O3 (stereo not drawn) [Example 4, 8-[4-(1H-Indol-3-yl)-3,6-dihydro-2H-pyridin-1-ylmethyl]-2-methyl-7,8-dihydro-3H-6,9-dioxa-1,3-diaza-cyclopenta[a]naphthalene] |  | 0.41 nM | 1.58 nM | (100) | 10 nM |  |  |
| Cc1nc2ccc3c(c2n1C)OC(CN1CC=C(c2c[nH]c4ccccc24)CC1)CO3 (stereo not drawn) [Example 5, 8-[4-(1H-Indol-3-yl)-3,6-dihydro-2H-pyridin-1-ylmethyl]-1,2-dimethyl-7,8-dihydro-3H-6,9-dioxa-1,3-diaza-cyclopenta[a]naphthalene] |  |  |  | (100) | 6520 nM | 2 nM | 52 nM |
| Fc1ccc2c(C3=CCN(CC4COc5ccc6[nH]c(C(F)(F)F)nc6c5O4)CC3)c[nH]c2c1 (stereo not drawn) (as salt: fumarate) (hydrate or solvate) [Example 3, 8-[4-(6-Fluoro-1H-indol-3-yl)-3,6-dihydro-2H-pyridin-1-ylmethyl]-2-trifluoromethyl-7,8-dihydro-3H-6,9-dioxa-1,3-diaza-cyclopenta[a]naphthalene] | 215 to 220 °C |  |  |  |  |  |  |
| FC(F)(F)C(F)(F)c1nc2c3c(ccc2[nH]1)OCC(CN1CC=C(c2c[nH]c4ccccc24)CC1)O3 (stereo not drawn) (as salt: fumarate) [Example 8, 8-[4-(1H-Indol-3-yl)-3,6-dihydro-2H-pyridin-1-ylmethyl]-2-pentafluoroethyl-7,8-dihydro-3H-6,9-dioxa-1,3-diaza-cyclopenta[a]naphthalene] | 238 to 239 °C |  |  |  |  |  |  |
| FC(F)(F)C(F)(F)c1nc2c3c(ccc2[nH]1)OCC(CN1CC=C(c2c[nH]c4ccccc24)CC1)O3 (stereo not drawn) [Example 8, 8-[4-(1H-Indol-3-yl)-3,6-dihydro-2H-pyridin-1-ylmethyl]-2-pentafluoroethyl-7,8-dihydro-3H-6,9-dioxa-1,3-diaza-cyclopenta[a]naphthalene] |  |  |  | (91.1) | 43.6 nM | 1.25 nM | 1.88 nM |
| Fc1ccc2c(C3=CCN(CC4COc5ccc6[nH]c(C(F)(F)F)nc6c5O4)CC3)c[nH]c2c1 (stereo not drawn) [Example 3, 8-[4-(6-Fluoro-1H-indol-3-yl)-3,6-dihydro-2H-pyridin-1-ylmethyl]-2-trifluoromethyl-7,8-dihydro-3H-6,9-dioxa-1,3-diaza-cyclopenta[a]naphthalene] |  | 1.12 nM | 2.67 nM | (66.5) | 22 nM |  |  |
| Fc1ccc2[nH]cc(C3=CCN(CC4COc5ccc6[nH]c(C(F)(F)F)nc6c5O4)CC3)c2c1 (stereo not drawn) [Example 1, 8-[4-(5-Fluoro-1H-indol-3-yl)-3,6-dihydro-2H-pyridin-1-ylmethyl]-2-trifluoromethyl-7,8-dihydro-3H-6,9-dioxa-1,3-diaza-cyclopenta[a]naphthalene] |  | 1.04 nM | 3.07 nM | (100) | 93.5 nM |  |  |
| FC(F)(F)c1nc2c3c(ccc2[nH]1)OCC(CN1CC=C(c2c[nH]c4ccccc24)CC1)O3 (stereo not drawn) (as salt: fumarate) [Example 2, 8-[4-(1H-Indol-3-yl)-3,6-dihydro-2H-pyridin-1-ylmethyl]-2-trifluoromethyl-7,8-dihydro-3H-6,9-dioxa-1,3-diaza-cyclopenta[a]naphthalene] | 231 to 233 °C |  |  |  |  |  |  |
